Tests used:
[1] = Pharmacokinetics test, oral capsules, plasma concentration by LC-MS/MS; type: in vivo; details: male Beagle dogs, oral capsule, 5 mg/kg
Description: The test samples (that is, the salt of the present invention or its crystal form, or the compound represented by formula (I) of the present invention) were filled into capsules for oral administration.
Three […] male Beagle dogs were taken orally administered capsules containing the test sample at a dose of 5 mg/kg, and blood was collected at time points of 0.25, 0.5, 1.0, 2.0, 5.0, 7.0 and 24 h. Standard curve was plotted based on concentrations of the samples in a suitable range, the concentration of the test sample in the plasma sample was measured and quantified by AB SCIEX API5500 LC-MS/MS at MRM mode. Pharmacokinetic parameters were calculated according to drug concentration-time curve using a noncompartmental method by WinNonLin 6.3 software.

[2] = Solubility test in water by HPLC; type: physicochemical; details: for Concentration of compound represented by formula (I) in saturated aqueous solution: ultrapure water, 37 °C, shaking for 24 h, filtrate by HPLC
Description: The solubility of the present invention was determined using an Agilent 1200 High Performance Liquid Chromatograph DAD/VWD detector with an Agilent XDB-C18 model (4.6×50 mm, 5 μm). Detection wavelength was 266 nm, flow rate was 1.0 mL/min, the column temperature was 35° C., mobile phase A: acetonitrile/0.01 M ammonium acetate=[…] (V/V), analysis methods: acetonitrile/mobile phase A=70/30 (V/V), running time was 10 minutes.
The test samples were placed in organic ultrapure water at 37 O(C to prepare a supersaturated solution. After shaking for 24 h, the mixture was filtered with an aqueous filter membrane to obtain the filtrate, and the solubility of the target sample in water was detected by HPLC. Results are as shown in Table 5.

[3] = Stability test (high temperature, high humidity, light); type: physicochemical; details: for Outward (appearance): cell wraps r9-r11: Off-white solid
Description: • (1) High temperature test: a batch of the test samples were taken into the flat weighing bottles, spread into a thin layer with a thickness of ≤5 mm. The above weighing bottles were stored at 40° C.±2° C./75%±5% RH and 60° C.±2° C./75% f 5% RH for 30 days in an incubator. On the 5th, 10th, and 30th days, samples were taken for detection according to the key stability inspection items: the color change of the sample was observed, the purity of the sample was determined by HPLC. • (2) High humidity test: a batch of the test samples were taken into the flat weighing bottles, spread into a thin layer with a thickness of ≤5 mm, and stored for 30 days at 25° C., RH 75%±5% or RH 90%±5%. On the 5th, 10th, and 30th days, samples were taken for detection according to the key stability inspection items: the color change of the sample was observed, the purity of the sample was determined by HPLC. • (3) Light test: a batch of the test samples were taken into the flat weighing bottles, spread into a thin layer of ≤5 mm thick, and placed in a light box (with an ultraviolet lamp) with an open mouth. The test samples were stored under the condition of illuminance of 4500±500 lx and ultraviolet light ≥0.7 w·h/m^2 for 30 days. On the 5th, 10th, and 30th days, samples were taken for detection according to the key stability inspection items: the color change of the sample was observed, the purity of the sample was determined by HPLC.

[4] = Hygroscopicity test (weight gain, 25° C., saturated ammonium chloride desiccator, 24 hours); type: physicochemical
Description: • 1) A dry stoppered glass weighing bottle (50 mm in outer diameter, 15 mm in height) was placed in a constant temperature desiccator (the lower part was placed in a saturated ammonium chloride solution) at 25° C.±1° C. the day before, and accurately weighed (m1). • 2) An appropriate amount of the test sample was taken and spread in the above weighing bottle. The thickness of the test sample was generally about 1 mm, and it was precisely weighed (m2). • 3) The weighing bottle was opened and placed together with the bottle cap under the above constant temperature and humidity conditions for 24 hours. • 4) The weighing bottle was closed with the bottle cap, and accurately weighed (m3).

MAO-B = molecular target: T1, MAO-B (Homo sapiens, UniProt P27338); details: as disclosed in WO 2019170115 A1; cited from earlier work
T1 sequence (P27338 1-520): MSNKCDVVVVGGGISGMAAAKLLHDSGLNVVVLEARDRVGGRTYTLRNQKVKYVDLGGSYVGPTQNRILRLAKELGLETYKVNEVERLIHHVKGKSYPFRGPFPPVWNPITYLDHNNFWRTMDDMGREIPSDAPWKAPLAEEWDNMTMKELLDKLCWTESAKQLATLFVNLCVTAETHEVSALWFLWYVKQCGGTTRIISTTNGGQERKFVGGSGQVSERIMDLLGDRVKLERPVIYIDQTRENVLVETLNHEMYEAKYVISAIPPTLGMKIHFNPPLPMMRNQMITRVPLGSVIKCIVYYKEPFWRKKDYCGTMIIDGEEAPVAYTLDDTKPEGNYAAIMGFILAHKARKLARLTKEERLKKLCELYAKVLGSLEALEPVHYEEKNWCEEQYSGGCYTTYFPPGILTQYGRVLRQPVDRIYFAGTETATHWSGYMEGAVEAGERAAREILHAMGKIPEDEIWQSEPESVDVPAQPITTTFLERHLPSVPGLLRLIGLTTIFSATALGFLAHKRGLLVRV

[5] = High humidity (25° C., RH 75% ± 5%), 5 days
[6] = High humidity (25° C., RH 75% ± 5%), 10 days
[7] = High humidity (25° C., RH 75% ± 5%), 30 days
[8] = High humidity (25° C., RH 90% ± 5%), 5 days
[9] = High humidity (25° C., RH 90% ± 5%), 10 days
[10] = High humidity (25° C., RH 90% ± 5%), 30 days
[11] = High temperature (40° C., RH 75% ± 5%), 5 days
[12] = High temperature (40° C., RH 75% ± 5%), 10 days
[13] = High temperature (40° C., RH 75% ± 5%), 30 days
[14] = High temperature (60° C., RH 75% ± 5%), 5 days
[15] = High temperature (60° C., RH 75% ± 5%), 10 days
[16] = High temperature (60° C., RH 75% ± 5%), 30 days
[17] = Light (4500±500 lx, ultraviolet), 5 days
[18] = Light (4500±500 lx, ultraviolet), 10 days
[19] = Light (4500±500 lx, ultraviolet), 30 days
[20] = 25° C.±1° C., saturated ammonium chloride solution, 24 hours

NC(=O)[C@@H]1C[C@H](F)CN1Cc1ccc(OCc2cccc(F)c2)cc1 [Example 8, (2S,4S)-4-fluoro-1-(4-(3-fluorobenzyloxy)benzyl)pyrrolidine-2-carboxamide] showed an AUClast [1] of 378 ng·h/mL, a Cmax [1] of 0.143 µg/mL and a Tmax [1] of 0.7 h. For the same compound, the “Concentration of compound represented by formula (I) in saturated aqueous solution” value (shortened to “Concentration of compound represented”) [2] was 4719.01 µg/mL.
NC(=O)[C@@H]1C[C@H](F)CN1Cc1ccc(OCc2cccc(F)c2)cc1 [Example 10, (2S,4S)-4-fluoro-1-(4-(3-fluorobenzyloxy)benzyl)pyrrolidine-2-carboxamide] gave an AUClast [1] of 470 ng·h/mL, a Cmax [1] of 0.162 µg/mL and a Tmax [1] of 2.2 h. For the same compound, the “Concentration of compound represented” value [2] was 1571.18 µg/mL.
Compound NC(=O)[C@@H]1C[C@H](F)CN1Cc1ccc(OCc2cccc(F)c2)cc1 [Example 2, (2S,4S)-4-fluoro-1-(4-(3-fluorobenzyloxy)benzyl)pyrrolidine-2-carboxamide] has an AUClast [1] of 939 ng·h/mL, a Cmax [1] of 0.415 µg/mL and a Tmax [1] of 1 h. The Purity ([3]; 0 day) was 99.74%, the “Outward (appearance)” value ([3]; 0 day) was “Off-” and the Purity [3, 5] was 99.80%. For the same compound, the “Outward (appearance)” value [3, 5] was “Off-”, the Purity [3, 6] was 99.69% and the “Outward (appearance)” value [3, 6] was “Off-”. For the same compound, the Purity [3, 7] was 99.72%, the “Outward (appearance)” value [3, 7] was “Off-” and the Purity [3, 8] was 99.80%. The “Outward (appearance)” value [3, 8] was “Off-”, the Purity [3, 9] was 99.69% and the “Outward (appearance)” value [3, 9] was “Off-”. For the same compound, the Purity [3, 10] was 99.73%, the “Outward (appearance)” value [3, 10] was “Off-” and the Purity [3, 11] was 99.74%. The “Outward (appearance)” value [3, 11] was “Off-”, the Purity [3, 12] was 99.70% and the “Outward (appearance)” value [3, 12] was “Off-”. For the same compound, the Purity [3, 13] was 99.68%, the “Outward (appearance)” value [3, 13] was “Off-” and the Purity [3, 14] was 99.72%. For the same compound, the “Outward (appearance)” value [3, 14] was “Off-”, the Purity [3, 15] was 99.64% and the “Outward (appearance)” value [3, 15] was “Off-”. The Purity [3, 16] was 99.68%, the “Outward (appearance)” value [3, 16] was “Off-” and the Purity [3, 17] was 99.70%. The “Outward (appearance)” value [3, 17] was “Off-”, the Purity [3, 18] was 99.64% and the “Outward (appearance)” value [3, 18] was “Off-”. The Purity [3, 19] was 99.64%, the “Outward (appearance)” value [3, 19] was “Off-” and the “Change of appearance and purity” value ([3]; conditions of high temperature, high humidity and light, up to 30 days) was “no obvious change”. The “Hygroscopicity” value [4] was “no or almost no hygroscopicity”, the “Conclusion (hygroscopicity feature)” value [4, 20] was “No or almost none” and the Hygroscopicity gain [4, 20] was 0.12%. The “Concentration of compound represented” value [2] was 21161.79 µg/mL.
In the case of NC(=O)[C@@H]1C[C@H](F)CN1Cc1ccc(OCc2cccc(F)c2)cc1 [Example 9, (2S,4S)-4-fluoro-1-(4-(3-fluorobenzyloxy)benzyl)pyrrolidine-2-carboxamide], the AUClast [1] was 450 ng·h/mL, the Cmax [1] was 0.151 µg/mL and the Tmax [1] was 3.4 h. For the same compound, the “Concentration of compound represented” value [2] was 575.35 µg/mL.
NC(=O)[C@@H]1C[C@H](F)CN1Cc1ccc(OCc2cccc(F)c2)cc1 [Compound represented by formula (I), (2S,4S)-4-fluoro-1-(4-(3-fluorobenzyloxy)benzyl)pyrrolidine-2-carboxamide] gave an AUClast [1] of 548 ng·h/mL, a Cmax [1] of 0.256 µg/mL and a Tmax [1] of 0.8 h. The “Water solubility (in words)” value [2] was “poor water solubility”, the “Concentration of compound represented” value [2] was 11.40 µg/mL and the “Inhibitory effect on the activity of MAO-B” value (MAO-B) was “good inhibitory effect”.

Source: patent US12630507B2, “Pyrrolidine amide derivative salt and use thereof” (SUNSHINE LAKE PHARMA CO., LTD., priority 2020, dated 2026)
